For data set [1], the system named is Rattus norvegicus. Kind of data set: In vivo inhibition of AChE-mediated substrate hydrolysis in Charles Foster albino rat hypothalamus at 5 to 10 mg/kg, po administered for 8 days measured 1 hr post last dose. The data set is classed as functional, organism-based. On the set-up: dose 5 to 10 mg/kg, route oral.
The subject of data set [2] is Rattus norvegicus. The data set is described as follows: Antiamnesic activity in po dosed Charles Foster albino rat assessed as reduction in scopolamine-induced increase in transfer latency after 7 to 8 days by elevated plus maze task. The format is functional, organism-based.
Data set [3] concerns the target T1, Acetylcholinesterase (Electrophorus electricus, UniProt O42275). Kind of data set: Inhibition of electric eel AChE using […] as substrate incubated for 20 mins prior to substrate addition by Ellman method. Background: DTNB colorimetry detects thiols as they appear.
In data set [4] the target is T2, Cholinesterase (Homo sapiens, UniProt P06276). Kind of data set: Inhibition of human serum BChE using butyrylthiolcholine iodide as substrate incubated for 20 mins prior to substrate addition by Ellman's method.
T2 sequence (P06276 whole entry): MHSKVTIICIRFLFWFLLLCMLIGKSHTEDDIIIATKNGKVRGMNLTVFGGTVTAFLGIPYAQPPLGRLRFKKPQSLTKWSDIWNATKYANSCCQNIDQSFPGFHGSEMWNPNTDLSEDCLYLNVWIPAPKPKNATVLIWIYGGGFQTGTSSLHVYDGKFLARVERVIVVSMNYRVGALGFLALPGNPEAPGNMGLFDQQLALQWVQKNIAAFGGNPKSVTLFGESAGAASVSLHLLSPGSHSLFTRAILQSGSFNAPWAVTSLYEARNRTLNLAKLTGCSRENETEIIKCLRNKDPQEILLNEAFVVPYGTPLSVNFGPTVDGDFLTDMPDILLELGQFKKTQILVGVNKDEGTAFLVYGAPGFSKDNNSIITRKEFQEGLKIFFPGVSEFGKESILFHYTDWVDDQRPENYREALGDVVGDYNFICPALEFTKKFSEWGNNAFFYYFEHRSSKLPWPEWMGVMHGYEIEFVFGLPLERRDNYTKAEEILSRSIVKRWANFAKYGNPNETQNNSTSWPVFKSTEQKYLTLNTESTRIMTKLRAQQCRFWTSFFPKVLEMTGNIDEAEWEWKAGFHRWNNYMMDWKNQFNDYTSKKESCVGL
Data set [5] deals with Rattus norvegicus. The data set is described as follows: Antiamnesic activity in Charles Foster albino rat assessed as reduction in scopolamine-induced increase in transfer latency at 10 mg/kg, po administered for 7 days measured 1 hr post last dose by elevated plus maze task (reference value: 67.67 +/- 0.88 s). The data set is classed as functional.
Data set [6] relates to Rattus norvegicus. Kind of data set: Acute toxicity in Charles Foster albino rat assessed as blood pressure up to 100 mg/kg, po after 48 hrs. The data set is classed as organism-based. On the set-up: dose 100 mg/kg, route oral. Conditions: in vivo.
The subject of data set [7] is Rattus norvegicus. The data set is described as follows: Acute toxicity in Charles Foster albino rat assessed as convulsions up to 100 mg/kg, po after 48 hrs. The data set is classed as organism-based. On the set-up: dose 100 mg/kg, route oral. Conditions: in vivo.
For data set [8], the system named is Rattus norvegicus. Kind of data set: Acute toxicity in Charles Foster albino rat assessed as tremors up to 100 mg/kg, po after 48 hrs. On the set-up: dose 100 mg/kg, route oral. The format is organism-based. Conditions: in vivo.
Data set [9] concerns Rattus norvegicus. Kind of data set: Antiamnesic activity in Charles Foster albino rat assessed as reduction in scopolamine-induced increase in transfer latency at 5 mg/kg, po administered for 8 days measured 1 hr post last dose by elevated plus maze task (reference value: 62.50 +/- 0.76 s). The data set is classed as functional.
Data set [10] has as its system Rattus norvegicus. Kind of data set: Antiamnesic activity in Charles Foster albino rat assessed as reduction in scopolamine-induced increase in transfer latency at 5 mg/kg, po administered for 7 days measured 1 hr post last dose by elevated plus maze task (reference value: 67.67 +/- 0.88 s). The format is functional.
Data set [11] relates to Rattus norvegicus. The data set is described as follows: In vivo inhibition of AChE-mediated substrate hydrolysis in Charles Foster albino rat hippocampus at 5 to 10 mg/kg, po administered for 8 days measured 1 hr post last dose. The format is functional, organism-based. On the set-up: dose 5 to 10 mg/kg, route oral.
Data set [12] has as its system Rattus norvegicus. Kind of data set: Acute toxicity in Charles Foster albino rat assessed as heart rate up to 100 mg/kg, po after 48 hrs. The format is organism-based. On the set-up: dose 100 mg/kg, route oral. The following applies: in vivo.
Data set [13] can be described thus: Selectivity ratio of IC50 for human serum BChE to IC50 for electric eel AChE.
Data set [14] concerns Rattus norvegicus. Kind of data set: In vivo inhibition of AChE-mediated substrate hydrolysis in Charles Foster albino rat prefrontal cortex at 5 to 10 mg/kg, po administered for 8 days measured 1 hr post last dose. The data set is classed as functional, organism-based.
Data set [15] deals with Rattus norvegicus. Kind of data set: Acute toxicity in Charles Foster albino rat assessed as diarrhoea up to 100 mg/kg, po after 48 hrs. Conditions: in vivo. The format is organism-based. On the set-up: dose 100 mg/kg, route oral.
Data set [16] concerns Rattus norvegicus. Kind of data set: Acute toxicity in Charles Foster albino rat assessed as sleep up to 100 mg/kg, po after 48 hrs. The data set is classed as organism-based. Conditions: in vivo. On the set-up: dose 100 mg/kg, route oral.
Data set [17] concerns Rattus norvegicus. Kind of data set: Acute toxicity in Charles Foster albino rat assessed as mortality up to 100 mg/kg, po after 48 hrs. The data set is classed as organism-based. On the set-up: dose 100 mg/kg, route oral. Conditions: in vivo.
In data set [18] the test system is Rattus norvegicus. The data set is described as follows: Acute toxicity in Charles Foster albino rat assessed as salivation up to 100 mg/kg, po after 48 hrs. The format is organism-based. On the set-up: dose 100 mg/kg, route oral. The following applies: in vivo.
Data set [19] deals with Rattus norvegicus. Kind of data set: Antiamnesic activity in Charles Foster albino rat assessed as reduction in scopolamine-induced increase in transfer latency at 10 mg/kg, po administered for 8 days measured 1 hr post last dose by elevated plus maze task (reference value: 62.50 +/- 0.76 s). The format is functional.
Data set [20] relates to Rattus norvegicus. Kind of data set: Acute toxicity in Charles Foster albino rat assessed as pulse rate up to 100 mg/kg, po after 48 hrs. The data set is classed as organism-based. On the set-up: dose 100 mg/kg, route oral. Conditions: in vivo.
Data set [21] concerns Rattus norvegicus. The data set is described as follows: Acute toxicity in Charles Foster albino rat assessed as feeding behaviour up to 100 mg/kg, po after 48 hrs. The data set is classed as organism-based. On the set-up: dose 100 mg/kg, route oral. The following applies: in vivo.
Data set [22] concerns Rattus norvegicus. Kind of data set: Acute toxicity in Charles Foster albino rat assessed as lacrimation up to 100 mg/kg, po after 48 hrs. The format is organism-based. Conditions: in vivo. On the set-up: dose 100 mg/kg, route oral.
Data set [23] addresses T2, Cholinesterase. The data set is described as follows: Competitive inhibition of human serum BChE using butyrylthiolcholine iodide as substrate by Lineweaver-Burk plot analysis.
The target of data set [24] is T1, Acetylcholinesterase. Kind of data set: Non-competitive inhibition of electric eel AChE using […] as substrate by Lineweaver-Burk plot analysis.

Active and inactive are the calls of the source. The rule behind the calls is not given here.

T1 sequence (O42275 whole entry): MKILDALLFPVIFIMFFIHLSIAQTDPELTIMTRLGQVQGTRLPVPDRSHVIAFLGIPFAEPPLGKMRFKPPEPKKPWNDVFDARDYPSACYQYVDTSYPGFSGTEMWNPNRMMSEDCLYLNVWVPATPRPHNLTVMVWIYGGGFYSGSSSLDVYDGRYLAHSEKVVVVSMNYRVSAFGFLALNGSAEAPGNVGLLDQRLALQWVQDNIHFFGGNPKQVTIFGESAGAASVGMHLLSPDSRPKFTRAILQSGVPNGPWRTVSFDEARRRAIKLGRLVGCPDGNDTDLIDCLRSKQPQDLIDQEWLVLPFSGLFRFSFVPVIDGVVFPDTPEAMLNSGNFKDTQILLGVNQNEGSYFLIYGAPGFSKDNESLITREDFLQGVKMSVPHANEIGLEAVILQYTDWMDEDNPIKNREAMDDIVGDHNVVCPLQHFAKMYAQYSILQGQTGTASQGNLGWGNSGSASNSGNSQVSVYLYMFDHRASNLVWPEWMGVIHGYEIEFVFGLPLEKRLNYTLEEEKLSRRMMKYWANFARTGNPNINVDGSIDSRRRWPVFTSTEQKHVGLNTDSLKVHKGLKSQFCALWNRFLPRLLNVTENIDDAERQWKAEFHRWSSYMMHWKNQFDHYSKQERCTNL

For the molecule `O=C(O)CCC(=O)Nc1ccncc1`, the inhibition entry in the data set with Rattus norvegicus [1], in the data set with Rattus norvegicus [11] and in the data set on Rattus norvegicus [14] was “Active” in each case. The Activity entry in the data set with Rattus norvegicus [2] is “Dose-dependent effect”; in the data set with Rattus norvegicus [6], “Non-toxic”; in the data set with Rattus norvegicus [7] it was “Non-toxic”; in the data set on Rattus norvegicus [8] it was “Non-toxic”; in the data set on Rattus norvegicus [12], “Non-toxic”; in the data set with Rattus norvegicus [15] it was “Non-toxic”. Moreover, the Activity result in the data set on Rattus norvegicus [16], with Rattus norvegicus [17], in the data set on Rattus norvegicus [18], with Rattus norvegicus [20], with Rattus norvegicus [21] and with Rattus norvegicus [22] was “Non-toxic” throughout. Besides, the IC50 against Acetylcholinesterase [3] stood at 40.3 µM; on Cholinesterase [4], 56.5 µM. Moreover, the Time was 74.83 s with Rattus norvegicus [5], 71.67 s with Rattus norvegicus [9], 77.67 s with Rattus norvegicus [10] and 70 s in the data set on Rattus norvegicus [19]. In [13], the Ratio IC50 stood at 1.39.
For the molecule `O=C1C=CC(=O)N1c1ccncc1`, the inhibition result with Rattus norvegicus [1], in the data set with Rattus norvegicus [11] and in the data set on Rattus norvegicus [14] was “Active” in each case. The Activity result in the data set with Rattus norvegicus [2] is “Dose-dependent effect”; with Rattus norvegicus [6], “Non-toxic”; in the data set with Rattus norvegicus [7], “Non-toxic”; in the data set on Rattus norvegicus [8], “Non-toxic”; in the data set on Rattus norvegicus [12], “Non-toxic”; in the data set with Rattus norvegicus [15] it was “Non-toxic”. The Activity result in the data set on Rattus norvegicus [16], in the data set on Rattus norvegicus [17], with Rattus norvegicus [18], with Rattus norvegicus [20], in the data set on Rattus norvegicus [21] and in the data set on Rattus norvegicus [22] was “Non-toxic” throughout. Also, the figures for the IC50 at Acetylcholinesterase [3] and at Cholinesterase [4] were 0.03 µM and 11 µM, respectively. Moreover, the Time in the data set on Rattus norvegicus [5] turned out to be 61.33 s; with Rattus norvegicus [9], 56.33 s; in the data set on Rattus norvegicus [10], 64.67 s; in the data set with Rattus norvegicus [19], 53.83 s. Besides, the results for the inhibitory constant (Ki) on Cholinesterase [23] and at Acetylcholinesterase [24] were 15.6 µM and 0.042 µM, respectively. Also, in [13], the Ratio IC50 came to 367.
As for `O=C1CCC(=O)N1c1ccncc1`, the inhibition result in the data set on Rattus norvegicus [1], with Rattus norvegicus [11] and in the data set with Rattus norvegicus [14] was “Active” each time. Also, the Activity result was “Dose-dependent effect” in the data set on Rattus norvegicus [2]; “Non-toxic” in the data set with Rattus norvegicus [6]; “Non-toxic” with Rattus norvegicus [7]; “Non-toxic” in the data set on Rattus norvegicus [8]; “Non-toxic” in the data set with Rattus norvegicus [12]; “Non-toxic” in the data set on Rattus norvegicus [15]. The Activity entry with Rattus norvegicus [16], in the data set on Rattus norvegicus [17], with Rattus norvegicus [18], in the data set with Rattus norvegicus [20], with Rattus norvegicus [21] and in the data set on Rattus norvegicus [22] was “Non-toxic” each time. Moreover, the IC50 stood at 0.49 µM at Acetylcholinesterase [3] and 3.82 µM on Cholinesterase [4]. Moreover, the Time with Rattus norvegicus [5] is given as 65.5 s; in the data set with Rattus norvegicus [9], 60.67 s; in the data set on Rattus norvegicus [10] it was 66.83 s; in the data set on Rattus norvegicus [19], 58.33 s. The Ratio IC50 in data set [13] amounted to 7.79.
Turning to `O=C(O)/C=C\C(=O)Nc1ccncc1`, the inhibition entry in the data set with Rattus norvegicus [1], in the data set on Rattus norvegicus [11] and with Rattus norvegicus [14] was “Active” in each case. The Activity entry in the data set with Rattus norvegicus [2] was “Dose-dependent effect”; with Rattus norvegicus [6], “Non-toxic”; in the data set on Rattus norvegicus [7] it was “Non-toxic”; in the data set with Rattus norvegicus [8] it was “Non-toxic”; in the data set on Rattus norvegicus [12], “Non-toxic”; in the data set with Rattus norvegicus [15], “Non-toxic”. The Activity entry with Rattus norvegicus [16], with Rattus norvegicus [17], with Rattus norvegicus [18], in the data set on Rattus norvegicus [20], with Rattus norvegicus [21] and in the data set on Rattus norvegicus [22] was “Non-toxic” each time. Further, the results for the IC50 on Acetylcholinesterase [3] and on Cholinesterase [4] were 48.7 µM and 657 µM, respectively. Further, the Time is listed as 77.67 s in the data set with Rattus norvegicus [5], 75.33 s with Rattus norvegicus [9], 80.5 s in the data set with Rattus norvegicus [10] and 72.5 s with Rattus norvegicus [19]. Moreover, the Ratio IC50 in data set [13] came out at 13.5.

Broadly, the IC50 is the midpoint of a concentration-inhibition curve. Low values mean greater potency, high ones weaker potency. Usually Ki stands for a dissociation constant, usually derived from enzyme kinetics or from competition with a known ligand.
